# Measurements reported in US6670493B2, “Methods and compositions for treating diseases due to androgen deficiency with glucocorticoid receptor antagonist compounds and new compounds” (Jenapharm GmbH & Co. KG, priority 2001, dated 2003).
# Legend:
# [1] = system: primary rat Leydig cells; experiment: hCG-stimulated testosterone production in primary rat Leydig cells treated with dexamethasone with or without glucocorticoid receptor antagonist (Elisa); format: cell-based; conditions: for Testosterone Production, Average value ± SD (%): hCG alone = 100, basal = 0
# Experimental: (§1) Testicular cells were prepared from the testicles of sexually mature, 12-week old, male Wistar rats by means of a collagenase treatment. Leydig cells were obtained from this preparation by a continuous Percoll gradient centrifugation.
# (§2) Freshly prepared Leydig cells were sown in microtiter plates in 100 μL of DMEM/F12 with phenol red (20,000) cells/well) with addition of 0.1% BSA, penicillin (100 U/ml) and streptomycin (100 μg/ml). After one hour, the medium was changed with addition of substance. For 18 hours, the Leydig cells were incubated with dexamethasone alone or together with glucocorticoid receptor antagonists (250 μL of DMEM/well with addition of penicillin (100 U/ml) and streptomycin (100 μg/ml)). […] Ethanol was used as solvent for dexamethasone and the glucocorticoid receptor antagonists; the final concentration of the ethanol was not more than 0.2%.
# Aliquots of the supernatant were frozen at −70° C. Testosterone was measured with a commercial Elisa (IBL, Hamburg). The standard curve of testosterone Elisa was then adapted to the cell culture conditions.
# [2] = system: primary rat Leydig cells; experiment: Cell damage: activity of mitochondrial succinate dehydrogenase (WST-1 test) in primary rat Leydig cell cultures; format: cell-based
# Experimental: as §1, §2
# Parallel to the testosterone measurement, cell damage was determined after the 26 hours by measuring the activity of the mitochondrial succinate dehydrogenase (WST-1 test, Böhringer, Mannheim).
# [3] = system: male rats of the CD breeding line; experiment: Male sexual behavior of rats after chronic dexamethasone treatment with or without RU 38486; format: in vivo, rat; conditions: for Male Sexual Behavior (Copulations in 5 minutes): day 9, average ± standard error
# Experimental: (§3) Sexually mature, 3-month old male rats of the CD breeding line (Charles River GmbH, Sulzfeld, Germany) were kept in groups of 4 animals under controlled illumination (light:darkness 12:12 hours) with free access to food and drinking water. After a 1-week adaptation, the animals were tested by exposure to ovarectomized, estrogen-treated females for the presence of male sexual behavior (G. Dörner, Hormones and brain differentiation, Elsevier, Amsterdam, 1976, pp. 126-132). […] The animals of the reference group received intraperitoneal injections of dexamethasone (Fortecortin: Merck, Darmstadt, Germany) daily according to the following schedule: 0.5 mg/kg on days 1 to 3, 1 mg/kg on days 4 to 6 and 1.5 mg/kg on days 7 to 9. The control animals were injected with placebo (0.9% sterile NaCl solution. In addition to the dexamethasone treatment, the experimental group received subcutaneous injections of the glucocorticoid receptor antagonist RU 38486 (Sigma, Deisenhofen, Germany) in sesame oil solution in a dose of 10 mg/kg daily according to the schedule given above.
# (§4) Male sexual behavior was evaluated on the ninth day by the method given above. After the behavior test, blood samples were taken from the retroorbital plexus for determining the serum testosterone level. The testosterone was determined with a commercial test formulation (IBL, Hamburg, Germany).
# [4] = system: male rats of the CD breeding line; experiment: Serum testosterone level of rats after chronic dexamethasone treatment with or without RU 38486; format: in vivo, rat; conditions: for Serum Testosterone: day 9, average ± standard error
# Experimental: as §3, §4
# [5] = hCG 0.5 ng/ml + 100 nM DEX alone
# [6] = dexamethasone alone i.p. 0.5-1.5 mg/kg daily for 9 days
# [7] = hCG 0.5 ng/ml + 100 nM DEX + glucocorticoid receptor antagonist 1 μm
# [8] = hCG + 100 nM DEX + glucocorticoid receptor antagonist 1 μm
# [9] = dexamethasone i.p. 0.5-1.5 mg/kg daily for 9 days + RU 38486 s.c. 10 mg/kg daily
# [10] = simultaneous administration of dexamethasone and RU 38486
SMILES,"Testosterone Production, Average value ± SD [1, 7] [ng/mL]","Testosterone Production, Average value ± SD (%) [1, 7] [%]","Succinate Dehydrogenase Activity, Average value ± SD [2, 8] [Absorptions Units]",other results
"C[C@@H]1C[C@H]2[C@@H]3CCC4=CC(=O)C=C[C@]4(C)[C@@]3(F)[C@@H](O)C[C@]2(C)[C@@]1(O)C(=O)CO [DEX, dexamethasone]",–,–,–,"Testosterone Production, Average value ± SD [1, 5]: 2.00 ± 0.58P ng/ml; Testosterone Production, Average value ± SD (%) [1, 5]: 44.63 ± 14.08P %; Effect on mitochondrial succinate dehydrogenase activity (in words) ([2]; dexamethasone 10^-7 M): significant inhibition of the mitochondrial activity; Succinate Dehydrogenase Activity, Average value ± SD [2, 5]: 0.192 ± 0.036 Absorptions Units; Male Sexual Behavior (Copulations in 5 minutes) [3, 6]: 4.0 ± 0.9 Copulations in 5 minutes; Serum Testosterone [4, 6]: 2.3 ± 0.2 ng/mL"
"COCC1(OC)CCC2C3CCC4=CC(=O)CCC4=C3C(c3ccc(C(=NO)C(F)(F)F)cc3)CC21C (stereo not drawn) [GRA1, 4-(17β-methoxy-17α-(methoxymethyl)-estra-4,9-diene-3-one-11β-yl]2,2,2-trifluoroacetophenone-1(Z)-oxime]",3.57 ± 0.83,83.00 ± 20.40,0.289 ± 0.040,–
C[C@]12C[C@H](c3ccc4c(c3)OCO4)C3=C4CCC(=O)C=C4CC[C@H]3[C@@H]1CC[C@@]2(O)C#Cc1ccc(S(C)(=O)=O)cc1 [GRA2],3.48 ± 0.64,80.97 ± 15.47,0.363 ± 0.032,–
"CC12CC(c3ccc(C=NO)cc3)C3=C4CCC(=O)C=C4CCC3C1CCC2(O)C#Cc1ccc(S(C)(=O)=O)cc1 (stereo not drawn) [GRA3, 4-[17β-hydroxy-17α,21-(4′-methylsulfonylphenyl)-19-nor-3-oxopregna-4,9-diene-20-yn-11β-yl]benzaldehyde-1(E)-oxime]",4.52 ± 1.01,106.30 ± 24.75,0.313 ± 0.018,–
"CC#C[C@]1(O)CC[C@H]2[C@@H]3CCC4=CC(=O)CCC4=C3[C@@H](c3ccc(N(C)C)cc3)C[C@@]21C [RU38486, 11β-dimethylaminophenyl-17β-hydroxy-17α-propinyl-estra-4,9-diene-3-one]",4.48 ± 1.14,105.23 ± 27.83,0.311 ± 0.031,"Male Sexual Behavior (Copulations in 5 minutes) [3, 9]: 9.2 ± 1.0 Copulations in 5 minutes; Effect on male sexual behavior (in words) [3, 10]: retention of male sexual behavior at the level of the placebo group; Serum Testosterone [4, 9]: 20.2 ± 4.9 ng/mL; Effect on serum testosterone concentration (in words) [4, 10]: prevented the reduction in the serum testosterone concentration"
